Measurements as given in patent publication US20120245137A1 (Zalicus Pharmaceuticals Ltd., priority 2009, published 2012).

The molecules below were run against N-type calcium channel subunits (α1B, α2δ, and β3a) (Homo sapiens, UniProt Q00975) (assay: Block of Cav2.2 channel, whole cell voltage clamp, manual and PatchXpress). Conditions: Table 5; table follows Assay Example 3 (whole cell voltage clamp / PatchXpress); assay not given.
Chain of N-type calcium channel subunits (α1B, α2δ, and β3a) (Q00975 whole entry): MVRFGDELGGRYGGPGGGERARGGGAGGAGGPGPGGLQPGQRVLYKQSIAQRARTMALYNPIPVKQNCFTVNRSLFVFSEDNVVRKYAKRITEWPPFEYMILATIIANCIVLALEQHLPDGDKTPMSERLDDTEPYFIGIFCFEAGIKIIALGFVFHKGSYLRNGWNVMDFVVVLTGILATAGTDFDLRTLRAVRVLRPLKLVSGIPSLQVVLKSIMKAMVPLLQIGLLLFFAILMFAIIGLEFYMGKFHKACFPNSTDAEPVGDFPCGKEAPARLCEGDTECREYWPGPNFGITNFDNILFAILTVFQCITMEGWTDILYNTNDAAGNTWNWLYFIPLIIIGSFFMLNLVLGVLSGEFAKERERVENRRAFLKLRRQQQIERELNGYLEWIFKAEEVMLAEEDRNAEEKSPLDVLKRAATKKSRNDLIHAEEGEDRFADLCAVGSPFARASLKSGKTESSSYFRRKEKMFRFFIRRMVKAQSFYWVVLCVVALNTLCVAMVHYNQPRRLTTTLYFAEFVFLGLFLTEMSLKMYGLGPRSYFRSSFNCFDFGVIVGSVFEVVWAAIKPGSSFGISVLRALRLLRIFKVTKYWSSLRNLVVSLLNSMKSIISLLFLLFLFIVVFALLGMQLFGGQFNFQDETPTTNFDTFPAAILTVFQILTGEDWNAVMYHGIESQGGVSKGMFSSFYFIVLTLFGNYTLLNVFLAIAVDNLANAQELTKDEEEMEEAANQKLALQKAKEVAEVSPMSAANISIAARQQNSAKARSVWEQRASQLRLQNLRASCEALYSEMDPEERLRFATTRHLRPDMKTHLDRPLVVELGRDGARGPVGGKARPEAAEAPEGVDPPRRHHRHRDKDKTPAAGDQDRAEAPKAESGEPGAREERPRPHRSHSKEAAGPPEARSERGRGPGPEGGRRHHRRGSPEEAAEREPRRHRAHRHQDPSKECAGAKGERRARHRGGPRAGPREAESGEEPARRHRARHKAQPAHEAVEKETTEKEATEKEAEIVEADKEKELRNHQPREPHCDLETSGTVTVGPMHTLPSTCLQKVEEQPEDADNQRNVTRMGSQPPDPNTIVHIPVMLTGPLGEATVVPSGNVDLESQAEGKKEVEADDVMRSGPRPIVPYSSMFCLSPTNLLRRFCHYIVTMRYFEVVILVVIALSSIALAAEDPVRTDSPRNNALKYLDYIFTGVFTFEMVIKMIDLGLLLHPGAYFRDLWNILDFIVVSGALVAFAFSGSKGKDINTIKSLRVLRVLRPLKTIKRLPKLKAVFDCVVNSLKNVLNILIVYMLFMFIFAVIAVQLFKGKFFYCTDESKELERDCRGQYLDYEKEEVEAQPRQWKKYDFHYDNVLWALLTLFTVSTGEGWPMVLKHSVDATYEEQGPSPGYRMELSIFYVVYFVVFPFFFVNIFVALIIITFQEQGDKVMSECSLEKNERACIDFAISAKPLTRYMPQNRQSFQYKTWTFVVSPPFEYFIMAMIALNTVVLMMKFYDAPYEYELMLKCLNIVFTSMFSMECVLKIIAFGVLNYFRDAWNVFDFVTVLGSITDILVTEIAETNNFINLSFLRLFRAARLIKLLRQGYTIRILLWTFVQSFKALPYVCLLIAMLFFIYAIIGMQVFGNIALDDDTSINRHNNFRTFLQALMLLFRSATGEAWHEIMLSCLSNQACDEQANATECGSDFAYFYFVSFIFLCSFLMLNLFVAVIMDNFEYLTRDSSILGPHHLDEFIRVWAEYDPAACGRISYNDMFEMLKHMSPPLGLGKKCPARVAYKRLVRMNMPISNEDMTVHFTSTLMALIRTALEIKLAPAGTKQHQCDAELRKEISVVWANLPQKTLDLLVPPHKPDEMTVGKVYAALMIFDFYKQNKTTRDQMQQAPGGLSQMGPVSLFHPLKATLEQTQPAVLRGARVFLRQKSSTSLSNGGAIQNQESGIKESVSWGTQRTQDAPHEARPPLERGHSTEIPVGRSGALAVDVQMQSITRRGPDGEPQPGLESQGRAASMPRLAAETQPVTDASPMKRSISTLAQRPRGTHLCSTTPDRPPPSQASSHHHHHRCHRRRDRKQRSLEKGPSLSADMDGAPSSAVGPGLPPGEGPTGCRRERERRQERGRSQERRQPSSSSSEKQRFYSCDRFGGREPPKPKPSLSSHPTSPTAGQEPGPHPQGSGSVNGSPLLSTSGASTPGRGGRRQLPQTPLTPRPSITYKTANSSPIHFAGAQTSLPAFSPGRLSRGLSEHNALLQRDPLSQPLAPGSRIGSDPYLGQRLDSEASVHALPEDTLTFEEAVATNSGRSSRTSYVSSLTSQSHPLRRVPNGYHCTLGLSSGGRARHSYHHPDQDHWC
Chain of N-type calcium channel subunits (α1B, α2δ, and β3a) (P54289 25-1103 partner): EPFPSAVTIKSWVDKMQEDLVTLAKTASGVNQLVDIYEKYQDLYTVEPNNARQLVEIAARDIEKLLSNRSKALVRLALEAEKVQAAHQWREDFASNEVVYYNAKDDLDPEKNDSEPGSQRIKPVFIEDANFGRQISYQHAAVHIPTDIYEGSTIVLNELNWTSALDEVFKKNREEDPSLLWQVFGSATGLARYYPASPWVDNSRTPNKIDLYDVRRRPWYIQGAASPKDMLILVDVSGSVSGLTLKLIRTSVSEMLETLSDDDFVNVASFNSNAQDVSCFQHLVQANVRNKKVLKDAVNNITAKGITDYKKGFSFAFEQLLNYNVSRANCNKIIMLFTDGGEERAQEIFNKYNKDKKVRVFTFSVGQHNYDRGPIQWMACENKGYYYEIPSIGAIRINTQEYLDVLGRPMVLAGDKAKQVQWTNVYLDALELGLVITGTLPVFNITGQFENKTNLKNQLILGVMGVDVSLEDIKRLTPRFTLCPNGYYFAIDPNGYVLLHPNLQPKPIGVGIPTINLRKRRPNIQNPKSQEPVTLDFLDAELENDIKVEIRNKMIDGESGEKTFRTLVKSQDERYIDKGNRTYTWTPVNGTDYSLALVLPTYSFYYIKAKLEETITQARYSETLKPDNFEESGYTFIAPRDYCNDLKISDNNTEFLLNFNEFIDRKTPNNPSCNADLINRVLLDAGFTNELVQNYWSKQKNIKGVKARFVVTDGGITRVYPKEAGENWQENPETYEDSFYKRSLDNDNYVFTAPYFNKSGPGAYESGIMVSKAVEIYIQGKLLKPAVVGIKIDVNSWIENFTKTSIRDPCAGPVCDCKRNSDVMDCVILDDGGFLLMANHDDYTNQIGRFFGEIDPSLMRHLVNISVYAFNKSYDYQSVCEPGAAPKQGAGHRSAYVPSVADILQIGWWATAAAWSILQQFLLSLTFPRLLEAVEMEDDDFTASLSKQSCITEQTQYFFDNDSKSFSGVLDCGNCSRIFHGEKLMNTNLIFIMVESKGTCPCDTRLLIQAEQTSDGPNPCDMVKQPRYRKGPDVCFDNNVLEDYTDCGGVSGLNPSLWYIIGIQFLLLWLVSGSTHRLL
Chain of N-type calcium channel subunits (α1B, α2δ, and β3a) (P54284 whole entry partner): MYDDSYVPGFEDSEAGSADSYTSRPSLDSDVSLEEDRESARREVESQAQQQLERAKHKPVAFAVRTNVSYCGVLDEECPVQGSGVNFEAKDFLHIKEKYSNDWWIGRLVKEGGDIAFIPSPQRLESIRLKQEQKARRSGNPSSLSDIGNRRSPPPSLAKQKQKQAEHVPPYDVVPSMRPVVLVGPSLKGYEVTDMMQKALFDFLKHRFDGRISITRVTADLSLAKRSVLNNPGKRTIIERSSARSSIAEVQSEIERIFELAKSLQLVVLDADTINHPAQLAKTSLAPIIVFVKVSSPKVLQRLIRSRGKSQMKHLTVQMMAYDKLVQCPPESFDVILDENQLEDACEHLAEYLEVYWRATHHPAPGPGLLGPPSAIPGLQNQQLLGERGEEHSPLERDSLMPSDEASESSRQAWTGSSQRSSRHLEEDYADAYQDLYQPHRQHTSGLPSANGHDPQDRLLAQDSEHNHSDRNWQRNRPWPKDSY
Assay type: cell-based
Experimental: Cells are grown either on poly-D-lysine coated coverglass (manual EP) or in TIS culture plates (PatchXpress). For the PatchExpress, cells are released from the flask using trypsin. In both cases, the […] solution is (in mM): 130 […], 10 EGTA, 10 HEPES, 2 MgCl2, 3 MgATP, pH 7.3 with CsOH.
Microelectrodes are fabricated from borosilicate glass and fire-polished. […] The reference electrode is a silver-silver chloride pellet. Voltages are not corrected for the liquid junction potential between the internal and external solutions and leak is subtracted using the P/n procedure. Solutions are applied to cells by bath perfusion via gravity. The experimental chamber volume is—0.2 mL. and the perfusion rate is 0.5-2 mL/min. Flow of suction through the chamber is maintained at all times. Measurement of current amplitudes is performed with […] software (HEKA Elektronik).
PatchXpress (Molecular Devices) is a 16-well whole-cell automated patch clamp device that operates asynchronously with fully integrated fluidics. […] Capacitance and series resistance compensation is automated. No correction for liquid junction potentials is employed. Leak is subtracted using the P/n procedure. Compounds are added to cells with a pipettor from a 96-well compound plate. Voltage protocols and the recording of membrane currents are performed using the PatchXpress software/hardware system. Current amplitudes are calculated with DataXpress software.
In both manual and automated patch clamp, cells are voltage clamped at […] or −90 m V and 50 ms pulses to +20 mV are applied every 15 sec (0.067 Hz). Compounds are added in escalating doses to measure % inhibition. Percent inhibition is calculated from the ratio of the curerent amplitude in the presence and absence of compound. When multiple doses are achieved per cell, IC50 values are calculated.
Molecule `O=C(CN[C@H]1C[C@H](S(=O)(=O)c2cccc(C(F)(F)F)c2)C1)N1CCC(C(F)(F)F)CC1` [Compound 214, 2-(trans-3-(3-(trifluoromethyl)phenylsulfonyl)cyclobutylamino)-1-(4-(trifluoromethyl)piperidin-1-yl)ethanone] has an IC50 of 2090 nM.
`CC(C)(C)NC(=O)CN[C@H]1C[C@H](S(=O)(=O)c2cccc(C(F)(F)F)c2)C1` [Compound 215, N-tert-butyl-2-(trans-3-(3-(trifluoromethyl)phenylsulfonyl)cyclobutylamino)acetamide] was tested, and the IC50 was 2810 nM.
Work on `O=C(CN[C@H]1C[C@H](S(=O)(=O)c2cccc(C(F)(F)F)c2)C1)NC1CCCCC1` [Compound 216, N-cyclohexyl-2-(trans-3-(3-(trifluoromethyl)phenylsulfonyl)cyclobutylamino)acetamide] yielded an IC50 of 1010 nM.
Work on `O=C(N[C@H]1C[C@H](S(=O)(=O)c2cccc(C(F)(F)F)c2)C1)c1cc(F)cc(Cl)c1` [Compound 220, 3-chloro-5-fluoro-N-(trans-3-(3-(trifluoromethyl)phenylsulfonyl)cyclobutyl)benzamide] yielded an IC50 of 3350 nM.
For `COc1cc(F)cc(C(=O)N[C@H]2C[C@H](S(=O)(=O)c3cccc(C(F)(F)F)c3)C2)c1` [Compound 222, 3-fluoro-5-methoxy-N-(trans-3-(3-(trifluoromethyl)phenylsulfonyl)cyclobutyl)benzamide], the IC50 was 2960 nM.
`O=C(N[C@H]1C[C@H](S(=O)(=O)c2cccc(C(F)(F)F)c2)C1)c1ccc(F)c(C(F)(F)F)c1` [Compound 224, 4-fluoro-3-(trifluoromethyl)-N-(trans-3-(3-(trifluoromethyl)phenylsulfonyl)cyclobutyl)benzamide] showed an IC50 of 1500 nM.
`O=C(N[C@H]1C[C@H](S(=O)(=O)c2cccc(C(F)(F)F)c2)C1)c1ccc(F)c(Cl)c1` [Compound 225, 3-chloro-4-fluoro-N-(trans-3-(3-(trifluoromethyl)phenylsulfonyl)cyclobutyl)benzamide] gave an IC50 of 2350 nM.
Molecule `Cn1nc(C(F)(F)F)cc1C(=O)N[C@H]1C[C@H](S(=O)(=O)c2cccc(C(F)(F)F)c2)C1` [Compound 226, 1-methyl-3-(trifluoromethyl)-N-(trans-3-(3-(trifluoromethyl)phenylsulfonyl)cyclobutyl)-1H-pyrazole-5-carboxamide] has an IC50 of 2150 nM.
`COc1cc(F)cc(C(=O)NC[C@]2(O)CC[C@@H](S(=O)(=O)c3cccc(C(F)(F)F)c3)CC2)c1` [Compound 229, 3-fluoro-N-(((1S,4S)-1-hydroxy-4-(3-(trifluoromethyl)phenylsulfonyl)cyclohexyl)methyl)-5-methoxybenzamide] gave an IC50 of 1020 nM.
In the case of `Cn1nc(C(F)(F)F)cc1C(=O)NC[C@]1(O)CC[C@@H](S(=O)(=O)c2cccc(C(F)(F)F)c2)CC1` [Compound 231, N-(((1S,4S)-1-hydroxy-4-(3-(trifluoromethyl)phenylsulfonyl)cyclohexyl)methyl)-1-methyl-3-(trifluoromethyl)-1H-pyrazole-5-carboxamide], the IC50 is reported as 1870 nM.
`O=C(NC[C@]1(O)CC[C@@H](S(=O)(=O)c2cccc(C(F)(F)F)c2)CC1)c1ccc(C(F)(F)F)cn1` [Compound 232, N-(((1S,4S)-1-hydroxy-4-(3-(trifluoromethyl)phenylsulfonyl)cyclohexyl)methyl)-5-(trifluoromethyl)picolinamide] showed an IC50 of 2660 nM.
For `CS(=O)(=O)c1cc(C(F)(F)F)ccc1C(=O)NC[C@]1(O)CC[C@@H](S(=O)(=O)c2cccc(C(F)(F)F)c2)CC1` [Compound 233, N-(((1S,4S)-1-hydroxy-4-(3-(trifluoromethyl)phenylsulfonyl)cyclohexyl)methyl)-2-(methylsulfonyl)-4-(trifluoromethyl)benzamide], the IC50 was 3570 nM.
For `O=C(NC[C@]1(O)CC[C@@H](S(=O)(=O)c2cccc(C(F)(F)F)c2)CC1)c1ccc(C(F)(F)F)nc1` [Compound 235, N-(((1S,4S)-1-hydroxy-4-(3-(trifluoromethyl)phenylsulfonyl)cyclohexyl)methyl)-6-(trifluoromethyl)nicotinamide], the IC50 was 5940 nM.
With `COc1cc(C(=O)NC[C@]2(O)CC[C@@H](S(=O)(=O)c3cccc(C(F)(F)F)c3)CC2)cc(Cl)n1` [Compound 236, 2-chloro-N-(((1S,4S)-1-hydroxy-4-(3-(trifluoromethyl)phenylsulfonyl)cyclohexyl)methyl)-6-methoxyisonicotinamide] the IC50 was 2100 nM.
`O=C(NC[C@]1(O)CC[C@@H](S(=O)(=O)c2cccc(C(F)(F)F)c2)CC1)c1cc(C(F)(F)F)ccn1` [Compound 237, N-(((1S,4S)-1-hydroxy-4-(3-(trifluoromethyl)phenylsulfonyl)cyclohexyl)methyl)-4-(trifluoromethyl)picolinamide] was tested, and the IC50 was 4560 nM.
Work on `O=C(N[C@H]1CC[C@@](F)(S(=O)(=O)c2cccc(C(F)(F)F)c2)CC1)c1ccc(O)c(C(F)(F)F)c1` [Compound 247, N-((1S,4S)-4-fluoro-4-(3-(trifluoromethyl)phenylsulfonyl)cyclohexyl)-4-hydroxy-3-(trifluoromethyl)benzamide] yielded an IC50 of 1010 nM.
Work on `O=C1c2ccc(C(F)(F)F)cc2C(=O)N1C1CCC(F)(S(=O)(=O)c2cccc(C(F)(F)F)c2)CC1` [Compound 280, 2-((1S,4S)-4-fluoro-4-(3-(trifluoromethyl)phenylsulfonyl)cyclohexyl)-5-(trifluoromethyl)isoindoline-1,3-dione] yielded an IC50 greater than 10000 nM.
`O=C(N[C@H]1CC[C@@](F)(S(=O)(=O)c2cccc(C(F)(F)F)c2)CC1)C1CCCCN1` (stereo partly drawn) [Compound 283, N-((1S,4S)-4-fluoro-4-(3-(trifluorornethyl)phenylsulfonyl)cyclohexyl) piperidine-2-carboxamide] showed an IC50 of 580 nM.
`N[C@@H]1CCCC[C@H]1C(=O)N[C@H]1CC[C@@](F)(S(=O)(=O)c2cccc(C(F)(F)F)c2)CC1` [Compound 284, (1R,2R)-2-amino-N-((1S,4S)-4-fluoro-4-(3-(trifluoromethyl)phenylsulfonyl)cyclohexyl) cyclohexanecarboxamide] was tested, and the IC50 was 1050 nM.
`CC1(NC(=O)c2ccnn2CC(F)(F)F)CCC(S(=O)(=O)c2cccc(C(F)(F)F)c2)CC1` (centres unmarked) [Compound 314, N-(1-methyl-4-(3-(trifluoromethyl)phenylsulfonyl)cyclohexyl)-1-(2,2,2-trifluoroethyl)-1Hpyrazole-5-carboxamide] was tested, and the IC50 was 4920 nM.
For `COc1cc(F)cc(C(=O)NC[C@H]2C[C@H](S(=O)(=O)c3cccc(C(F)(F)F)c3)C2)c1` [Compound 375, 3-fluoro-5-methoxy-N-(((1R,3R)-3-(3-(trifluoromethyl)phenylsulfonyl)cyclobutyl)methyl)benzamide], the IC50 was 260 nM.
Work on `O=C(NC[C@H]1C[C@H](S(=O)(=O)c2cccc(C(F)(F)F)c2)C1)c1ccc(OCC(F)(F)F)nc1` [Compound 376, 6-(2,2,2-trifluoroethoxy)-N-(((1R,3R)-3-(3-(trifluoromethyl)phenylsulfonyl)cyclobutyl)methyl)nicotinamide] yielded an IC50 of 540 nM.
`O=C(NC[C@H]1C[C@H](S(=O)(=O)c2cc(F)cc(C(F)(F)F)c2)C1)c1ccc(C(F)(F)F)cn1` [Compound 390, N-(((1R,3R)-3-(3-fluoro-5-(trifluoromethyl)phenylsulfonyl)cyclobutyl)methyl)-5-(trifluoromethyl) picolinamide] showed an IC50 of 1630 nM.
Work on `O=C(NC[C@H]1C[C@H](S(=O)(=O)c2cc(F)cc(C(F)(F)F)c2)C1)c1ccc(F)c(Cl)c1` [Compound 391, 3-chloro-4-fluoro-N-(((1R,3R)-3-(3-fluoro-5-(trifluoromethyl)phenylsulfonyl)cyclobutyl)rnethyl)benzamide] yielded an IC50 of 730 nM.
Molecule `O=C(NC[C@H]1C[C@H](S(=O)(=O)c2cc(F)cc(C(F)(F)F)c2)C1)c1cn2cc(C(F)(F)F)ccc2n1` [Compound 393, N-(((1R,3R)-3-(3-fluoro-5-(trifluoromethyl)phenylsulfonyl)cyclobutyl)methyl)-6-(trifluoromethyl) imidazo[1,2-a]pyridine-2-carboxamide] has an IC50 of 1070 nM.
`O=C(NC[C@H]1C[C@H](S(=O)(=O)c2cc(F)cc(C(F)(F)F)c2)C1)c1ccc(Cl)c(OC(F)(F)F)c1` [Compound 394, 4-chloro-N-(((1R,3R)-3-(3-fluoro-5-(trifluoromethyl)phenylsulfonyl)cyclobutyl)methyl)-3-(trifluoromethoxy)benzamide] was tested, and the IC50 was 510 nM.
In the case of `O=C(NC[C@H]1C[C@H](S(=O)(=O)c2cc(F)cc(C(F)(F)F)c2)C1)c1ccc(Cl)c(Cl)c1` [Compound 395, 3,4-dichloro-N-(((1R,3R)-3-(3-fluoro-5-(trifluoromethyl)phenylsulfonyl)cyclobutyl)methyl)benzamide], the IC50 is reported as 750 nM.
`O=C(NC[C@H]1C[C@H](S(=O)(=O)c2cc(F)cc(C(F)(F)F)c2)C1)c1cc(C(F)(F)F)ccn1` [Compound 397, N-(((1R,3R)-3-(3-fluoro-5-(trifluoromethyl)phenylsulfonyl)cyclobutyl)methyl)-4-(trifluoromethyl)picolinamide] showed an IC50 of 910 nM.
With `O=C(NC[C@H]1C[C@H](S(=O)(=O)c2cc(F)cc(C(F)(F)F)c2)C1)c1ccc(OC(F)(F)F)cc1` [Compound 398, N-(((1R,3R)-3-(3-fluoro-5-(trifluoromethyl)phenylsulfonyl)cyclobutyl)methyl)-4-(trifluoromethoxy)benzamide] the IC50 was 740 nM.
